Several values for one entry are separate records, joined by “and”; a condition that tells them apart may be missing. Identical values can stand only once. Like-named read-outs stand apart in the source and are kept apart here. Numbered stars: 1 amine (or outer) side, 2 acyl side, 3 side chain; on linkers, the order of the positions; unused ones are H or OH. Square brackets hold non-standard residues; d marks the D form. Peptide text beside a SMILES is read from it. * marks the point of attachment. C18 diacid = O=C(O)CCCCCCCCCCCCCCCCC(=O)*; γGlu = O=C(O)[C@H](CCC(=O)[*:2])N[*:1]; NMeL = CN[C@@H](CC(C)C)C(=O)O; hSer = N[C@@H](CCO)C(=O)O; Nle = CCCC[C@H](N)C(=O)O; AEEA = NCCOCCOCC(=O)O
Columns and labels:
hNK1R = target: T1, hNK1R (Homo sapiens, UniProt P25103); experiment: IP3 assay (inositol trisphosphate, 3H-myoinositol) in transiently transfected COS-7 cells; format: cell-based; conditions: for EC50: 0.2% ovalbumin buffer
T1 construct: host or cells: COS-7
Procedure, shortened: (§1)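 COS-7 cells were transiently transfected with receptor plasmid and labelled with ³H-myo-inositol. Cells were lysed in formic acid, and ³H-inositol phosphates were captured on SPA YSI beads and counted.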

hNK2R [1] = target: T2, hNK2R (Homo sapiens, UniProt P21452); experiment: as above; format: cell-based; conditions: COS-7 cells; for EC50: 0.2% ovalbumin buffer; for hNK2R, IP3 Efficacy: figure legends: percent of 10^-6 M NKA
T2 construct: host or cells: COS-7
T2 sequence (P21452 1-398): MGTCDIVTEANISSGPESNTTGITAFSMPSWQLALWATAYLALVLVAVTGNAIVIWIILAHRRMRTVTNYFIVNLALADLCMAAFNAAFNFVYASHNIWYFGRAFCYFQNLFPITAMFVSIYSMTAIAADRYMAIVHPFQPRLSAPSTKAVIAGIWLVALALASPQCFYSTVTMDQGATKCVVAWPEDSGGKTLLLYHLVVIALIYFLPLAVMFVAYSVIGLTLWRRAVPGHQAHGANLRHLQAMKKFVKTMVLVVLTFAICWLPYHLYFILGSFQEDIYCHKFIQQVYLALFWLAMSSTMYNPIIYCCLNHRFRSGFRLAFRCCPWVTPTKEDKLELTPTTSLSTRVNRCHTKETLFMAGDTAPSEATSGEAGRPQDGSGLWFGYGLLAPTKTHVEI
Procedure, shortened: as §1

hNK3R = target: T3, hNK3R (Homo sapiens, UniProt P29371); experiment: as above; format: cell-based; conditions: for EC50: 0.2% ovalbumin buffer, read-out: hNK3, IP3 EC50
T3 construct: host or cells: COS-7
T3 sequence (P29371 1-465): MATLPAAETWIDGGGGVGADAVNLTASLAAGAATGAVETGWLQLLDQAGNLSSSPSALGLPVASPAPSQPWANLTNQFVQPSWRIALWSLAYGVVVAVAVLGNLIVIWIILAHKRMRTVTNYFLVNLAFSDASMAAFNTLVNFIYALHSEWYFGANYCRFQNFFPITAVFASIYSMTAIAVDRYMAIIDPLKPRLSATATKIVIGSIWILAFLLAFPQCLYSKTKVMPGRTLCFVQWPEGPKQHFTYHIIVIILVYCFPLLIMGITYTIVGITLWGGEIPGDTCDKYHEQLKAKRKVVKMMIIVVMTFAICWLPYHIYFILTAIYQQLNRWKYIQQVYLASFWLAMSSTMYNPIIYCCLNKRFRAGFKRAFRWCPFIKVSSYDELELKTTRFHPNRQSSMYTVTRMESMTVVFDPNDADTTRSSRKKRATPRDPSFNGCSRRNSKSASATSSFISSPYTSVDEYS
Procedure, shortened: as §1

hNK2R [2] = target: T2, hNK2R; experiment: 3H-NKA competitive binding on transfected COS-7 cells; conditions: competition with 3H-NKA, 4 h at 4 C
Description: Assays were carried out using COS-7 cells transiently transfected by calcium phosphate transfection with a vector pcDNA3.1(+) encoding one of the indicated receptors (Genscript). Briefly, DNA mixed with CaCl2 (2 M) and TE-buffer (10 mM Tris-HCl, 1 mM EDTA, pH 7.5) was dropwise added to 2×HBS (50 mM HEPES, 280 mM NaCl, 1.5 mM NaH2PO4, pH 7.2) and incubated for 45 min at room temperature (22±2° C.). The mixture and a final concentration of 100 μM Chloroquine were added to the cells and left to incubate for 5 hours at 37° C. under standard cell culture conditions (10% CO2) before changing medium to fresh maintenance medium.
The ^3H-NKA binding assay measures peptide-receptor binding by a competitive principle of receptor binding between radioactively labelled (3H) NKA (tracer) and synthesized peptide ligands on live cells expressing the receptor of interest. Assay solutions used: TKR buffer (50 mM Tris/HCl pH 7.5, 5 mM MnCl2, and 150 mM NaCl), wash buffer (TKR buffer+0.2% w/v OvAlb), binding buffer (wash buffer+0.1 mg/ml Bacitracin), and tracer solution (binding buffer+˜15000 cpm/well ^3H-tracer). The assay was performed on ice the day after transfection.
Briefly, maintenance medium was aspirated, and plates were washed ×1 in cold wash buffer before adding 100 μl cold binding buffer and placing at 4° C. to let plates cool. The cold plates were added indicated peptides (ligand) immediately followed by addition of cold tracer solution (˜15000 cpm/well). Plates were immediately moved to 4° C. and incubated for 4 hours. After incubation, binding was stopped by wash ×2 with cold wash buffer before adding 225 μl Ultima Gold XR. Plates were shaken at medium speed for approximately 30 min and left overnight at room temperature before counting the plates in a MicroBeta plate counter (Perkin Elmer).

[3] = COS-7 cells, figure legends: percent of 10^-6 M NKA

T1 sequence (P25103 whole entry): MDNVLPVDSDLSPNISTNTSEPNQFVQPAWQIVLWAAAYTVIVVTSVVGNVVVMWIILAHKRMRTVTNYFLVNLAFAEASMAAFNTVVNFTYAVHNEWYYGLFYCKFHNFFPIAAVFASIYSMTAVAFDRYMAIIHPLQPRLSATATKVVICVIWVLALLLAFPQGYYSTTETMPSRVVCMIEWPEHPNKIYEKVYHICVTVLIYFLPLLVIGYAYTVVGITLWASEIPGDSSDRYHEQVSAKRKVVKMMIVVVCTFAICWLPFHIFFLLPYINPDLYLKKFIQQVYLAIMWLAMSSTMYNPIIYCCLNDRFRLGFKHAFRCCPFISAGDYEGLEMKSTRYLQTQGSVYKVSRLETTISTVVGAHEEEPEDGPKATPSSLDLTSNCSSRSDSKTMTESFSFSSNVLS

SMILES	hNK1R, IP3 Efficacy (hNK1R) [%]	EC50 (hNK1R; COS-7 cells)	hNK1R, IP3 Efficacy (hNK1R; [3])	EC50 (hNK2R [1]) [nM]	hNK2R, IP3 Efficacy (hNK2R [1])	hNK3, IP3 Efficacy (hNK3R) [%]	hNK3, IP3 Efficacy (hNK3R; [3]) [%]	EC50 (hNK2R [2]) [nM]	EC50 (hNK3R; COS-7 cells) [nM]
COCC[C@H](NC(=O)[C@H](CC(C)C)NC(=O)CNC(=O)[C@@H](NC(=O)[C@H](Cc1ccc(O)cc1)NC(=O)[C@H](CCCCN)NC(=O)[C@H](CC(=O)O)NC(=O)COCCOCCNC(=O)COCCOCCNC(=O)CC[C@H](NC(=O)CCCCCCCCCCCCCCCCC(=O)O)C(=O)O)C(C)C)C(N)=O [compound 393, *Asp;Lys;Tyr;Val;Gly;Leu;Metox;NH2] ({C18 diacid-γGlu-AEEA-AEEA}-DKYVGL[hSer](Me)-NH2)	50	342 nM and 3400 nM	52%	10	100%	30	36	40	–
CCCC[C@H](NC(=O)[C@H](CC(C)C)NC(=O)CNC(=O)[C@@H](NC(=O)[C@H](Cc1ccc(O)cc1)NC(=O)[C@H](CCCCN)NC(=O)[C@H](CC(=O)O)NC(=O)COCCOCCNC(=O)COCCOCCNC(=O)CC[C@H](NC(=O)CCCCCCCCCCCCCCCCC(=O)O)C(=O)O)C(C)C)C(N)=O [compound 392, *Asp;Lys;Tyr;Val;Gly;Leu;Nle;NH2] ({C18 diacid-γGlu-AEEA-AEEA}-DKYVGL[Nle]-NH2)	–	205 nM and 200 nM	52% and 30%	5.4	72% and 70%	–	0	25	–
COCC[C@H](NC(=O)[C@H](CC(C)C)NC(=O)[C@@H](CO)NC(=O)[C@@H](NC(=O)[C@H](Cc1ccc(O)cc1)NC(=O)[C@H](CCCCN)NC(=O)[C@H](CC(=O)O)NC(=O)COCCOCCNC(=O)COCCOCCNC(=O)CC[C@H](NC(=O)CCCCCCCCCCCCCCCCC(=O)O)C(=O)O)C(C)C)C(N)=O [compound 396, *Asp;Lys;Tyr;Val;dSer;Leu;Metox;NH2] ({C18 diacid-γGlu-AEEA-AEEA}-DKYV[dS]L[hSer](Me)-NH2)	–	–	0%	20	92%	–	0	316	–
COc1ccc(C[C@H](NC(=O)[C@H](CC(C)C)N(C)C(=O)CNC(=O)[C@@H](NC(=O)[C@H](Cc2ccccc2)NC(=O)[C@H](CCCCN)NC(=O)[C@H](CC(=O)O)NC(=O)COCCOCCNC(=O)COCCOCCNC(=O)CC[C@H](NC(=O)CCCCCCCCCCCCCCCCC(=O)O)C(=O)O)C(C)C)C(N)=O)cc1 [compound 370, *Asp;Lys;Phe;Val;Gly;NmLeu;4-MeOPhe;NH2] ({C18 diacid-γGlu-AEEA-AEEA}-DKFVG[NMeL]Y(Me)-NH2)	–	–	20%	10	90%	–	0	–	–
CCCC[C@H](NC(=O)[C@H](CC(C)C)N(C)C(=O)CNC(=O)[C@H](CO)NC(=O)[C@H](Cc1ccc(O)cc1)NC(=O)[C@H](CCCCN)NC(=O)[C@H](CC(=O)O)NC(=O)COCCOCCNC(=O)COCCOCCNC(=O)CC[C@H](NC(=O)CCCCCCCCCCCCCCCCC(=O)O)C(=O)O)C(N)=O [compound 386, *Asp;Lys;Tyr;Ser;Gly;NmLeu;Nle;NH2] ({C18 diacid-γGlu-AEEA-AEEA}-DKYSG[NMeL][Nle]-NH2)	–	–	0%	29	63%	–	0	–	–
CCCC[C@H](NC(=O)[C@H](CC(C)C)N(C)C(=O)CNC(=O)[C@@H](NC(=O)[C@H](Cc1ccc(O)cc1)NC(=O)[C@H](CCCCN)NC(=O)[C@@H](N)CC(=O)O)C(C)C)C(N)=O [compound 374, Asp;Lys;Tyr;Val;Gly;NmLeu;Nle;NH2] (H-DKYVG[NMeL][Nle]-NH2)	–	200 nM	50%	5.8	90%	–	0	–	–
CCCC[C@H](NC(=O)[C@H](CC(C)C)N(C)C(=O)CNC(=O)[C@@H](NC(=O)[C@H](Cc1ccccc1)NC(=O)[C@H](CCCCN)NC(=O)[C@H](CCC(=O)O)NC(=O)COCCOCCNC(=O)COCCOCCNC(=O)CC[C@H](NC(=O)CCCCCCCCCCCCCCCCC(=O)O)C(=O)O)[C@@H](C)O)C(N)=O [compound 397, *Glu;Lys;Phe;Thr;Gly;NmLeu;Nle;NH2] ({C18 diacid-γGlu-AEEA-AEEA}-EKFTG[NMeL][Nle]-NH2)	–	–	0%	28	75%	–	0	–	–
CCCC[C@H](NC(=O)[C@H](CC(C)C)N(C)C(=O)CNC(=O)[C@@H](NC(=O)[C@H](Cc1ccccc1)NC(=O)[C@H](CCCCN)NC(=O)[C@@H](N)CC(=O)O)C(C)C)C(N)=O [compound 375, Asp;Lys;Phe;Val;Gly;NmLeu;Nle;NH2]	–	12 nM	110%	0.5	100%	–	35	–	~50000
CCCC[C@H](NC(=O)[C@H](CC(C)C)N(C)C(=O)CNC(=O)[C@@H](NC(=O)[C@H](Cc1ccccc1)NC(=O)[C@H](CCCCN)NC(=O)[C@H](CCC(=O)O)NC(=O)COCCOCCNC(=O)COCCOCCNC(=O)CC[C@H](NC(=O)CCCCCCCCCCCCCCCCC(=O)O)C(=O)O)C(C)C)C(N)=O [compound 335, *Glu;Lys;Phe;Val;Gly;NmLeu;Nle;NH2] ({C18 diacid-γGlu-AEEA-AEEA}-EKFVG[NMeL][Nle]-NH2)	–	36 nM	70% and 72%	1.6	80%	–	100	–	113
CCCC[C@H](NC(=O)[C@H](CC(C)C)N(C)C(=O)CNC(=O)[C@@H](NC(=O)[C@H](Cc1ccccc1)NC(=O)[C@H](CCCCN)NC(=O)[C@H](CC(=O)O)NC(=O)COCCOCCNC(=O)COCCOCCNC(=O)CC[C@H](NC(=O)CCCCCCCCCCCCCCCCC(=O)O)C(=O)O)[C@@H](C)O)C(N)=O [compound 387, *Asp;Lys;Phe;Thr;Gly;NmLeu;Nle;NH2] ({C18 diacid-γGlu-AEEA-AEEA}-DKFTG[NMeL][Nle]-NH2)	–	5.5 nM	100%	3.3	100%	–	100	–	34
CCCC[C@H](NC(=O)[C@H](CC(C)C)N(C)C(=O)CNC(=O)[C@@H](NC(=O)[C@H](Cc1ccccc1)NC(=O)[C@H](CCCCNC(=O)COCCOCCNC(=O)COCCOCCNC(=O)CC[C@H](NC(=O)CCCCCCCCCCCCCCCCC(=O)O)C(=O)O)NC(=O)[C@@H](N)CC(=O)O)C(C)C)C(N)=O [compound 307, Asp;Lys*;Phe;Val;Gly;NmLeu;Nle;NH2]	–	–	64%	24	80%	–	85	–	~12000

— US20230406883A1, “COMPOUNDS AND THEIR USE IN TREATMENT OF TACHYKININ RECEPTOR MEDIATED DISORDERS” (Embark Biotech ApS, priority 2020, published 2023)
